Reference: publication PMC4508061, “Selectivity Profiling and Biological Activity of Novel β-Carbolines as Potent and Selective DYRK1 Kinase Inhibitors” (PLoS ONE, 2015)
Where two headings read alike, the source gives them in different places. One block for each compound: values may come before it.

What was measured:
[1] = target: T1, CLK1 (Homo sapiens, UniProt P49759); test: Kinase-GLO luminescent kinase assay; type: biochemical; parameters: made in house; host or cells: E. coli; details: 1 μM compound; means of at least 3 measurements
Protocol: (§1) Bacterial expression plasmids for GST-DYRK1A-ΔC and GST-DYRK2 have been described earlier. […] Expression in logarithmically growing E. coli culture was performed for 3 h at 37°C (GST-DYRK1A-ΔC and GST-DYRK2), 3 h at 26°C (GST-HIPK2cat), over night at 28°C (GST-CLK1cat) or over night at room temperature (GST-DYRK1Bcat).
(§2) Compounds were screened for inhibitory effects against GST-DYRK1A-ΔC, GST-DYRK1Bcat, GST-DYRK2, GST-CLK1cat or GST-HIPK2cat using the Kinase-GLO Luminescent Kinase Assay from Promega. Assays were performed in a total volume of 10 μL in kinase-buffer (25 mM Hepes pH 7.4, 0.5 mM DTT, 5 mM MgCl2, 5 μM ATP) with appropriate peptide substrates (20 μM DYRKtide for the DYRKs and 100 μM DYRKtide for HIPK2, […]; or 100 μM RS domain-derived peptide for CLK1, […]). Assays were started with this amount of a kinase preparation that consumed approximately 90% of the ATP in the assay (linear range of the kinase titration curve). The reactions were run at room temperature for 30 min before 10 μL Kinase-GLO reagent was added. After incubation at room temperature for additional 10 min, luminescence was recorded for 1 s.
Target sequence in this assay (P49759 141-484): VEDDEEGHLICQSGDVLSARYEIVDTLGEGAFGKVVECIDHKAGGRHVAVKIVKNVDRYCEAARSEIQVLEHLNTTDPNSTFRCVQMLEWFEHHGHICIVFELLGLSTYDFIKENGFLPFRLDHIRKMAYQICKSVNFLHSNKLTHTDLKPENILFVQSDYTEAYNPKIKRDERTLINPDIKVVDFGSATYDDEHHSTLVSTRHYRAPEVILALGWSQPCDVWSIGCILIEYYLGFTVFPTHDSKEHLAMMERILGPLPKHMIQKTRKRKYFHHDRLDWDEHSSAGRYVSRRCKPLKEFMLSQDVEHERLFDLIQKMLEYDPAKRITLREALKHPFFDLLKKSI

[2] = target: T2, HIPK2 (Homo sapiens, UniProt Q9H2X6); test: Kinase-GLO luminescent kinase assay; type: biochemical; parameters: made in house; host or cells: E. coli; details: 10 μM compound; means of at least 3 measurements
Protocol: as §1, §2
Target sequence in this assay (Q9H2X6 180-533): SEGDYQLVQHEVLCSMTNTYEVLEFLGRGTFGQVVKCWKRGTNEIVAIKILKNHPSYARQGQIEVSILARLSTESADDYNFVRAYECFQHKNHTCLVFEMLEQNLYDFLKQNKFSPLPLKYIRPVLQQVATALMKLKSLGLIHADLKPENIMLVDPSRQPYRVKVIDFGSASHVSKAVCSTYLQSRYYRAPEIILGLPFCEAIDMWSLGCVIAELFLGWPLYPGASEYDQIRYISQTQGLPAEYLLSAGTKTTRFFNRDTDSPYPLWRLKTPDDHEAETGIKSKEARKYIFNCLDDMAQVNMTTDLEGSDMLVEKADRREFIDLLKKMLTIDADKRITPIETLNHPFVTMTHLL

[3] = target: DYRK1B (Homo sapiens, UniProt Q9Y463); test: Kinase-GLO luminescent kinase assay; type: biochemical; parameters: made in house; host or cells: E. coli; details: 1 μM compound; means of at least 3 measurements
Protocol: as §1, §2

[4] = target: T3, DYRK1A (Homo sapiens, UniProt Q13627); test: Kinase-GLO luminescent kinase assay; type: biochemical; details: 1 μM compound; means of at least 3 measurements
T3 construct: purchased ProQinase (Freiburg, Germany)
Protocol: as §1, §2

[5] = target: T4, DYRK2 (Homo sapiens, UniProt Q92630); test: Kinase-GLO luminescent kinase assay; type: biochemical; details: 1 μM compound; means of at least 3 measurements
T4 construct: purchased ProQinase (Freiburg, Germany)
T4 sequence (Q92630 1-601): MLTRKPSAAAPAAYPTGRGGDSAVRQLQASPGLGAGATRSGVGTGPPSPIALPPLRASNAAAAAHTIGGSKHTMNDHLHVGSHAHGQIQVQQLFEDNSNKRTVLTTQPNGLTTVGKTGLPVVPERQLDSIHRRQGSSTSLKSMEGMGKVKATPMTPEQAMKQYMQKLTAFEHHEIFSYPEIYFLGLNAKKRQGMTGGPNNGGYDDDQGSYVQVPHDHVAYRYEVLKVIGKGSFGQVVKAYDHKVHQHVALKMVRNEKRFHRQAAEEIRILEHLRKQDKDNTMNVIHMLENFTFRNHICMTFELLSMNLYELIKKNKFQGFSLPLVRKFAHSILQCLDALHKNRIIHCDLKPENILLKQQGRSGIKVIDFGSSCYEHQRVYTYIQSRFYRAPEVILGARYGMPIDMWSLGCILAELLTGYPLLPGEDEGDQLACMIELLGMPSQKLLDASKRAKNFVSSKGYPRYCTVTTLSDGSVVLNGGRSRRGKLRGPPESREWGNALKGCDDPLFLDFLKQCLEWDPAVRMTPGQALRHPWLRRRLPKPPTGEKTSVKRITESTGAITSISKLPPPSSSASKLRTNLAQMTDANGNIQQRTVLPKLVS
Protocol: as §1, §2

[6] = target: PIM1 (Homo sapiens, UniProt P11309); parameters: purchased ProQinase (Freiburg, Germany); details: 10 μM; cited from earlier work
[7] = target: T5, HIPK4 (Homo sapiens, UniProt Q8NE63); parameters: purchased ProQinase (Freiburg, Germany); details: 10 μM; cited from earlier work
T5 sequence (Q8NE63 1-616): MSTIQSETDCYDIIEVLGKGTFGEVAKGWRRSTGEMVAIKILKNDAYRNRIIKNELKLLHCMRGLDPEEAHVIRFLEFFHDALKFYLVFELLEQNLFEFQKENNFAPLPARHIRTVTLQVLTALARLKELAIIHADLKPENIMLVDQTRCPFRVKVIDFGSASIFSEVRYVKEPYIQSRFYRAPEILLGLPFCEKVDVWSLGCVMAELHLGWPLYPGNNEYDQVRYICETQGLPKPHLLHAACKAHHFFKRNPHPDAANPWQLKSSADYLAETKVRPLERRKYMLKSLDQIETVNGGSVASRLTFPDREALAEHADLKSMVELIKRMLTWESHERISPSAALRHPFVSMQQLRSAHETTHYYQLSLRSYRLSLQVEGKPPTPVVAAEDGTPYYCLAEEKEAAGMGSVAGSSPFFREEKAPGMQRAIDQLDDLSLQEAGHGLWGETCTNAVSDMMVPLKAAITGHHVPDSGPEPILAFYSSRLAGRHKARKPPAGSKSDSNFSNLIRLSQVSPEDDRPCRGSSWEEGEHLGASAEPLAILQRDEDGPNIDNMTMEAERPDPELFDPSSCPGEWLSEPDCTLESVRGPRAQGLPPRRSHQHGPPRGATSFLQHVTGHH

[8] = target: T2, HIPK2; parameters: purchased ProQinase (Freiburg, Germany); details: 10 μM; cited from earlier work
Target sequence in this assay (Q9H2X6 whole entry): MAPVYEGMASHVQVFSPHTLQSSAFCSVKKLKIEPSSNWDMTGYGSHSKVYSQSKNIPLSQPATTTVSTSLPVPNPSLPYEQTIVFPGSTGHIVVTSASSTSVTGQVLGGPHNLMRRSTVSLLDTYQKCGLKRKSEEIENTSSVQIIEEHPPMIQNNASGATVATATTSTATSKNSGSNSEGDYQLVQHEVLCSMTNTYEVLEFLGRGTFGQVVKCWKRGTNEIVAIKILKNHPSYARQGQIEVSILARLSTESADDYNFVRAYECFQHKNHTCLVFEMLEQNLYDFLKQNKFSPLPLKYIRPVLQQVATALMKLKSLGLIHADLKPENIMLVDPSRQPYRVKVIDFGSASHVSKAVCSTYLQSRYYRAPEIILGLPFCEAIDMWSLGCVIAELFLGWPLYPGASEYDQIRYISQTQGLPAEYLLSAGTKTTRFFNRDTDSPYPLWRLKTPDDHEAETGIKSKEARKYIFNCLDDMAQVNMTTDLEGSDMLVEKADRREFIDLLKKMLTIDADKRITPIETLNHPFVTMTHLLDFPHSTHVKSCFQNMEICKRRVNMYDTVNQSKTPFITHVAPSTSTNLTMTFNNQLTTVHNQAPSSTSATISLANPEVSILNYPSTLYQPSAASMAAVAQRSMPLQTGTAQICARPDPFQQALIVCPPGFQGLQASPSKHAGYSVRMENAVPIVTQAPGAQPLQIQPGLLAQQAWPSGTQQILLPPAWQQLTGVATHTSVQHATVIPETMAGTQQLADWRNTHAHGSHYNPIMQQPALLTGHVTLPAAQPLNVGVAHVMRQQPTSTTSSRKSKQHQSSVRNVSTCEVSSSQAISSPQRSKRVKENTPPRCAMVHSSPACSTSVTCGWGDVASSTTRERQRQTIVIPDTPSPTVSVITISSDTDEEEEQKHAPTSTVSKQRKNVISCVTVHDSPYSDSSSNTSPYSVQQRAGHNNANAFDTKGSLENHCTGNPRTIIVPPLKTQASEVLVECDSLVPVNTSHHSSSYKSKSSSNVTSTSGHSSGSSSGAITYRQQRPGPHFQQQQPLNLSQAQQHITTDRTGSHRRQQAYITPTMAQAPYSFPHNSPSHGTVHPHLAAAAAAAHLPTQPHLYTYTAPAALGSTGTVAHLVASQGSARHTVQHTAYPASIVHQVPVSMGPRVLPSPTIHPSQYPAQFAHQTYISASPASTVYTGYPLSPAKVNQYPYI

[9] = target: PIM3 (Homo sapiens, UniProt Q86V86); parameters: purchased ProQinase (Freiburg, Germany); details: 10 μM; cited from earlier work
[10] = target: IRAK1 (Homo sapiens, UniProt P51617); parameters: purchased ProQinase (Freiburg, Germany); details: 10 μM; cited from earlier work
[11] = target: HIPK3 (Homo sapiens, UniProt Q9H422); parameters: purchased ProQinase (Freiburg, Germany); details: 10 μM; cited from earlier work
[12] = target: PIM2 (Homo sapiens, UniProt Q9P1W9); parameters: purchased ProQinase (Freiburg, Germany); details: 10 μM; cited from earlier work
[13] = tested on: DYRK1A; details: 10 μM; cited from earlier work
[14] = target: HIPK1 (Homo sapiens, UniProt Q86Z02); parameters: purchased ProQinase (Freiburg, Germany); details: 10 μM; cited from earlier work
[15] = Cell viability XTT assay; type: cell-based; details: human, read-out: Viability of treated cells relative to untreated control
[16] = Cell viability XTT assay; type: cell-based; details: human, read-out: Viability of treated cells relative to untreated control; remark: listed apart in the source
[17] = Cell viability XTT assay; type: cell-based; details: rat, read-out: Viability of treated cells relative to untreated control; for viability at 3 days, 1 µM: PC12, 1 μM
[18] = target: T1, CLK1; parameters: purchased ProQinase (Freiburg, Germany); details: 10 μM; cited from earlier work
[19] = target: T6, CLK3 (Homo sapiens, UniProt P49761); details: 10 μM; cited from earlier work
T6 construct: purchased ProQinase (Freiburg, Germany)

[20] = tested on: SH-SY5Y cells; test: Cell viability XTT assay; type: cell-based; details: 3 days
[21] = tested on: HeLa cells; test: Cell viability XTT assay; type: cell-based; details: 3 days
[22] = tested on: PC12 cells; test: Cell viability XTT assay; type: cell-based; details: 3 days

HIPK1, sequence (Q86Z02 whole entry): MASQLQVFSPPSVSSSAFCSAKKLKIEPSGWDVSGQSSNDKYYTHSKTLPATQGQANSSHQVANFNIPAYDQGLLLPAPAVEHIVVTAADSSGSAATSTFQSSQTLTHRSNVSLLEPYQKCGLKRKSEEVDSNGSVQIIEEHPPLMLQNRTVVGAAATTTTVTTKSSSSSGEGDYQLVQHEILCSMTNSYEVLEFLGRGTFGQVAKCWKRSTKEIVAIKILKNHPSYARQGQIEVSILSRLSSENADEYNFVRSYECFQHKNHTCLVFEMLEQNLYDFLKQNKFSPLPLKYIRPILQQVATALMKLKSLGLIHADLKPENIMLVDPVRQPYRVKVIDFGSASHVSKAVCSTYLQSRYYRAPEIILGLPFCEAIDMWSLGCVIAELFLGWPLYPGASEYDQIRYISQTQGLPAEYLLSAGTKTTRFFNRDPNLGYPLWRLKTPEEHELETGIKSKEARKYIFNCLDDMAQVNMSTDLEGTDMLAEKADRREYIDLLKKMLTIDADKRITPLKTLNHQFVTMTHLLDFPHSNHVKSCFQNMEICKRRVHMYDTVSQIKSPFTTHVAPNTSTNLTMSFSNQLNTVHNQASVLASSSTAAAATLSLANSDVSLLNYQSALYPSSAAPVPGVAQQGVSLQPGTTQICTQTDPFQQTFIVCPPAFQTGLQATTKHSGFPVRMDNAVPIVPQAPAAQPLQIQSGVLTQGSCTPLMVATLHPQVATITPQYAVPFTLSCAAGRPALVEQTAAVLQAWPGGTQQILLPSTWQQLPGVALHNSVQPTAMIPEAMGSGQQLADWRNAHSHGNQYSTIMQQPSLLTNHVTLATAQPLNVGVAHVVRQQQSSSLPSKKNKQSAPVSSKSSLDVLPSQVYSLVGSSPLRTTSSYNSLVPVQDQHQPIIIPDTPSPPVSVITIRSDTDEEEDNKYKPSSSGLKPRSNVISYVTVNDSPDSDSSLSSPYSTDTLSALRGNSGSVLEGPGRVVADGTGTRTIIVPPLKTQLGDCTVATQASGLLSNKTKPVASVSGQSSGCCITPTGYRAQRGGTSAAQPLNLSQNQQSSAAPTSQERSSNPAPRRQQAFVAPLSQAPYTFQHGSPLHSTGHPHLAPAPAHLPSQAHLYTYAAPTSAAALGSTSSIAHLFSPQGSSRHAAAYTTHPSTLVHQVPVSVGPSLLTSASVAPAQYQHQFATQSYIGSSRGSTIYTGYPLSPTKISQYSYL
PIM2, sequence (Q9P1W9 whole entry): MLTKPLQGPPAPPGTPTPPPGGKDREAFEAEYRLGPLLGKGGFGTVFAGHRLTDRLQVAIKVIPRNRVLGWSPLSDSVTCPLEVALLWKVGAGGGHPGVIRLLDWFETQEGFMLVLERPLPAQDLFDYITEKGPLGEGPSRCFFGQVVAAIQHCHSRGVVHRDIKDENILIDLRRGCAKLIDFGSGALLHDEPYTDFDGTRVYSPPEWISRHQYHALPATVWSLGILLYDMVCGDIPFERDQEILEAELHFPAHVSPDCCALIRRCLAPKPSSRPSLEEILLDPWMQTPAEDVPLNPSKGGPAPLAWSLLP
IRAK1, sequence (P51617 whole entry): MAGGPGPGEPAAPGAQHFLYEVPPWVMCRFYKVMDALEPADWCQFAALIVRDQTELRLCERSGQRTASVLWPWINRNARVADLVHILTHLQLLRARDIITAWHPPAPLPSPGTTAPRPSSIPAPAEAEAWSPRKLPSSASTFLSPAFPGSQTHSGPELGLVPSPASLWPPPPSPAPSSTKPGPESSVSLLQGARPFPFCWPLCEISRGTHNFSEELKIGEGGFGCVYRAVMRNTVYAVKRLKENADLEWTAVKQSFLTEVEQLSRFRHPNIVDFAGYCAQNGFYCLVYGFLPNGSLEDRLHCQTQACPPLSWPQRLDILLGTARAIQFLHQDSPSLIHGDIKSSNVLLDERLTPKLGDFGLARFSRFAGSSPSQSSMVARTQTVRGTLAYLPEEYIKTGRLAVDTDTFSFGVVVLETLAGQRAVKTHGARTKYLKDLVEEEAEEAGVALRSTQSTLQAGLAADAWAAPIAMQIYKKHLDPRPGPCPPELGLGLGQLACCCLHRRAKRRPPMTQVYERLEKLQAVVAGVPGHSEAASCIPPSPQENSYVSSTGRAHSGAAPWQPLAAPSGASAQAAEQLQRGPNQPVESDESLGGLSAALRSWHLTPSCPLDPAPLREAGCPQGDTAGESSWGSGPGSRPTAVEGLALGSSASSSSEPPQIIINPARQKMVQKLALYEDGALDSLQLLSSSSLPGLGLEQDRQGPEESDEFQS
PIM1, sequence (P11309 whole entry): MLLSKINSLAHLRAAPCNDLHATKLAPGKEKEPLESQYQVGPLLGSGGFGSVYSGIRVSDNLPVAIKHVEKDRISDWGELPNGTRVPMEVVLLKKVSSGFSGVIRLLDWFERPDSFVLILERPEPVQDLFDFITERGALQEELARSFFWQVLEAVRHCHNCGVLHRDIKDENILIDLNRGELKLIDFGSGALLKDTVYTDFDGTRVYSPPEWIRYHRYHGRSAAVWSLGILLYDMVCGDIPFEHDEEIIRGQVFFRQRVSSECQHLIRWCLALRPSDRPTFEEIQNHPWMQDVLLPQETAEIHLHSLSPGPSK

Residual activity (% of control) CLK1 [1]: 44 % of control
Residual activity (% of control) HIPK2 [2]: 96 % of control
Residual activity (% of control) DYRK1B [3]: 43 % of control
Residual activity (% of control) DYRK1A [4]: 22 % of control
Residual activity (% of control) DYRK2 [5]: 81 % of control
SMILES: COc1ccc2c3ccnc(C)c3n(CCC#N)c2c1 [AnnH42]

Residual activity (% of control) CLK1 [1]: 34 % of control
Residual activity (% of control) HIPK2 [2]: 74 % of control
Residual activity (% of control) DYRK1B [3]: 59 % of control
Residual activity (% of control) DYRK1A [4]: 17 % of control
Residual activity (% of control) DYRK2 [5]: 100 % of control
SMILES: C#CCn1c2c(C)nccc2c2ccc(Cl)c(Cl)c21 [AnnH67]

Residual activity (% of control) CLK1 [1]: 46 % of control
Residual activity (% of control) HIPK2 [2]: 97 % of control
Residual activity (% of control) DYRK1B [3]: 35 % of control
Residual activity (% of control) DYRK1A [4]: 12 % of control
Residual activity (% of control) DYRK2 [5]: 85 % of control
SMILES: C#CCn1c2cc(OC)ccc2c2ccnc(Cl)c21 [AnnH74]

Residual activity (% of control) CLK1 [1]: 17 % of control
Residual activity (% of control) HIPK2 [2]: 91 % of control
Residual activity (% of control) DYRK1B [3]: 44 % of control
Residual activity (% of control) DYRK2 [5]: 63 % of control
SMILES: COc1ccc2c(c1)[nH]c1c(Cl)nccc12 [AnnH24]
viability at 3 days, 1 µM ([15]; SH-SY5Y cells): 75%
viability at 3 days, 3 µM ([15]; SH-SY5Y cells, 3 μM): 66%
viability at 3 days, 10 µM ([15]; SH-SY5Y cells, 10 μM): 45%
viability at 3 days, 1 µM ([16]; HeLa cells): 97%
viability at 3 days, 3 µM ([16]; HeLa cells, 3 μM): 96%
viability at 3 days, 10 µM ([16]; HeLa cells, 10 μM): 72%
viability at 3 days, 1 µM ([17]; PC12 cells): 95%
viability at 3 days, 3 µM ([17]; PC12 cells, PC12, 3 μM): 90%
viability at 3 days, 10 µM ([17]; PC12 cells, PC12, 10 μM): 81%

Residual activity (% of control) CLK1 [1]: 58 % of control
Residual activity (% of control) HIPK2 [2]: 95 % of control
Residual activity (% of control) DYRK1B [3]: 50 % of control
Residual activity (% of control) DYRK1A [4]: 27 % of control
Residual activity (% of control) DYRK2 [5]: 51 % of control
SMILES: COc1ccc2c(c1)[nH]c1c(/C=C/c3ccccc3)nccc12 [AnnH18_5]

More lines, now with the values behind:

SMILES: Cc1nccc2c3ccc(Cl)c(Cl)c3n(CC#N)c12 [AnnH69]
Residual activity (% of control) CLK1 [1]: 33 % of control
Residual activity (% of control) HIPK2 [2]: 33 % of control
Residual activity (% of control) DYRK1B [3]: 60 % of control
Residual activity (% of control) DYRK1A [4]: 17 % of control
Residual activity (% of control) DYRK2 [5]: 61 % of control

SMILES: CN1C(=O)/C(=C/c2ccc3c(c2)OCO3)N=C1N [Leucett-amine B, Leucettamine B]
Residual activity (% of control) [6]: 73 % of control
Residual activity (% of control) [7]: 91 % of control
Residual activity (% of control) [8]: 60 % of control
Residual activity (% of control) [9]: 71 % of control
Residual activity (% of control) [10]: 100 % of control
Residual activity (% of control) [11]: 45 % of control
Residual activity (% of control) [12]: 82 % of control
Residual activity (% of control) [13]: 2 % of control
Residual activity (% of control) [14]: 34 % of control

SMILES: O=C1NC(Nc2ccccc2)=N/C1=C\c1ccc2c(c1)OCO2 [L41]
Residual activity (% of control) [7]: 44 % of control
Residual activity (% of control) [8]: 11 % of control
Residual activity (% of control) [9]: 27 % of control
Residual activity (% of control) [10]: 3 % of control
Residual activity (% of control) [12]: 41 % of control
Residual activity (% of control) [18]: 0 % of control
Residual activity (% of control) [13]: 0 % of control
Residual activity (% of control) [14]: 1 % of control
Residual activity (% of control) [19]: 2 % of control

SMILES: Nc1ncnc2c1c(I)cn2[C@@H]1O[C@H](CO)[C@@H](O)[C@H]1O [IoT, 5-iodotubercidin, reference compound]
Viability of treated cells relative to untreated control ([20]; 1 μM): 13%
Viability of treated cells relative to untreated control ([20]; 3 μM): 10%
Viability of treated cells relative to untreated control ([20]; 10 μM): 15%
Viability of treated cells relative to untreated control ([21]; 1 μM): 67%
Viability of treated cells relative to untreated control ([21]; 3 μM): 16%
Viability of treated cells relative to untreated control ([21]; 10 μM): 18%
Residual activity (% of control) CLK1 [1]: 4 % of control
Residual activity (% of control) HIPK2 [2]: 20 % of control
Residual activity (% of control) DYRK1B [3]: 4 % of control
Residual activity (% of control) DYRK1A [4]: 13 % of control
Residual activity (% of control) DYRK2 [5]: 10 % of control
Viability of treated cells relative to untreated control ([22]; PC12, 1 μM): 62%
Viability of treated cells relative to untreated control ([22]; PC12, 3 μM): 17%
Viability of treated cells relative to untreated control ([22]; PC12, 10 μM): 5%

SMILES: CN[C@@H]1C[C@H]2O[C@@](C)([C@@H]1OC)n1c3ccccc3c3c4c(c5c6ccccc6n2c5c31)C(=O)NC4 [Staurosporine, reference compound]
viability at 3 days, 1 µM ([15]; SH-SY5Y): 6%
viability at 3 days, 1 µM ([16]; HeLa): 8%
viability at 3 days, 1 µM [17]: 18%
